Values quoted from earlier work as cited in US20080096972A1, “COMPOUND FORMULATIONS OF 2-AMINO-1, 3-PROPANEDIOL COMPOUNDS” (priority 2004, published 2008).

Conditions: shortly after preparation or upon storage

Question: Which “crystalline deposits in aqueous solutions” value does the source give for `CCCCCCCCc1ccc(CCC(N)(CO)CO)cc1` [2-amino-2-[2-(4-octylphenyl)ethyl]-propane-1,3-diol] here?
Answer: crystalline deposits of this compound have been observed
